{"source": "patent US20090306227A1", "about": "“TABLET FOR REMOVING TONGUE COATING” (priority 2005, published 2009)", "assay": "Solubility of saccharides in water at 37° C.", "type": "physicochemical", "settings": "for Used Saccharide (Solubility at 37° C. (weight %)): value in parentheses under the saccharide name; for Solubility in water at 37° C.: unit from the definition, the table prints none", "procedure": "The solubility can be determined by a method well-known to those skilled in the art. For example, solubility (% by weight) can be determined as follows. A solute is dissolved gradually in water of weight W1 at 37° C. When the largest amount of the solute is dissolved in the water, the weight of the solution is W2. The weight of the dissolved solute W3 (=W2−W1) is divided by the weight of the solution W2, and multiplied by 100 (i.e., converted to a percentage).", "data": [{"compound": "OC[C@@H](O)[C@@H](O)[C@H](O)[C@@H](O)CO", "note": "[Sorbitol]", "values": [{"measurement": "Used Saccharide (Solubility at 37° C. (weight %))", "value": "(74) weight %"}, {"measurement": "Solubility in water at 37° C.", "value": 74, "unit": "% by weight"}]}, {"compound": "OC[C@H]1O[C@H](OC[C@H]2OC(O)(CO)[C@@H](O)[C@@H]2O)[C@H](O)[C@@H](O)[C@@H]1O", "note": "(stereo partly shown) [Palatinose]", "values": [{"measurement": "Used Saccharide (Solubility at 37° C. (weight %))", "value": "(40) weight %"}, {"measurement": "Solubility in water at 37° C.", "value": 40, "unit": "% by weight"}]}, {"compound": "OC[C@@H](O)[C@@H](O[C@@H]1O[C@H](CO)[C@H](O)[C@H](O)[C@H]1O)[C@H](O)[C@@H](O)CO", "note": "[Lactitol]", "values": [{"measurement": "Used Saccharide (Solubility at 37° C. (weight %))", "value": "(70) weight %"}, {"measurement": "Solubility in water at 37° C.", "value": 70, "unit": "% by weight"}]}, {"compound": "OC[C@@H](O)[C@@H](O[C@H]1O[C@H](CO)[C@@H](O)[C@H](O)[C@H]1O)[C@H](O)[C@@H](O)CO", "note": "[Maltitol]", "values": [{"measurement": "Used Saccharide (Solubility at 37° C. (weight %))", "value": "(63) weight %"}, {"measurement": "Solubility in water at 37° C.", "value": 63, "unit": "% by weight"}]}, {"compound": "OC[C@H]1O[C@@](CO)(O[C@H]2O[C@H](CO)[C@@H](O)[C@H](O)[C@H]2O)[C@@H](O)[C@@H]1O", "note": "[Sucrose]", "values": [{"measurement": "Used Saccharide (Solubility at 37° C. (weight %))", "value": "(68) weight %"}, {"measurement": "Solubility in water at 37° C.", "value": 68, "unit": "% by weight"}]}, {"compound": "OC[C@@H](O)[C@@H](O)[C@H](O)[C@H](O)CO", "note": "[Mannitol]", "values": [{"measurement": "Used Saccharide (Solubility at 37° C. (weight %))", "value": "(23) weight %"}, {"measurement": "Solubility in water at 37° C.", "value": 23, "unit": "% by weight"}]}, {"compound": "OC[C@@H](O)[C@H](O)[C@@H](O)CO", "note": "[Xylitol]", "values": [{"measurement": "Used Saccharide (Solubility at 37° C. (weight %))", "value": "(72) weight %"}, {"measurement": "Solubility in water at 37° C.", "value": 72, "unit": "% by weight"}]}, {"compound": "O=C(CO)[C@@H](O)[C@H](O)[C@H](O)CO", "note": "[Fructose]", "values": [{"measurement": "Used Saccharide (Solubility at 37° C. (weight %))", "value": "(84) weight %"}, {"measurement": "Solubility in water at 37° C.", "value": 84, "unit": "% by weight"}]}, {"compound": "OC[C@H]1O[C@H](O[C@H]2O[C@H](CO)[C@@H](O)[C@H](O)[C@H]2O)[C@H](O)[C@@H](O)[C@@H]1O", "note": "[Trehalose]", "values": [{"measurement": "Used Saccharide (Solubility at 37° C. (weight %))", "value": "(52) weight %"}, {"measurement": "Solubility in water at 37° C.", "value": 52, "unit": "% by weight"}]}, {"compound": "OC[C@@H](O)[C@@H](O)CO", "note": "[Erythritol]", "values": [{"measurement": "Used Saccharide (Solubility at 37° C. (weight %))", "value": "(44) weight %"}, {"measurement": "Solubility in water at 37° C.", "value": 44, "unit": "% by weight"}]}, {"compound": "Palatinit", "values": [{"measurement": "Used Saccharide (Solubility at 37° C. (weight %))", "value": "(37) weight %"}, {"measurement": "Solubility in water at 37° C.", "value": 37, "unit": "% by weight"}]}]}
